# ChEMBL document CHEMBL1143598, “1-Methyl-3H-pyrazolo[1,2-a]benzo[1,2,3,4]tetrazin-3-ones. Design, synthesis, and biological activity of new antitumor agents” (2005)
# Columns and labels:
# [1] = Concentration required to inhibit cell growth of human tumor cell lines (55 cells giving positive results out of 55 cells); Range = 6.28-4.59; type: functional
# [2] = Concentration required to inhibit cell death of human tumor cell lines (50 cells giving positive results out of 55 cells); Range = 5.27-4.1; type: functional; conditions: read-out: pLC50 (the source's name) (converted)
# [3] = Concentration required to inhibit total cell growth of human tumor cell lines (54 cells giving positive results out of 55 cells); Range = 5.72-4.10; type: functional; conditions: read-out: pTGI50 (converted)
# [4] = Concentration required to inhibit cell growth of human tumor cell lines (53 cells giving positive results out of 55 cells); Range is 5.68-4.53; type: functional
# [5] = Concentration required to inhibit cell death of human tumor cell lines (40 cells giving positive results out of 55 cells); Range = 4.26-4.06; type: functional; conditions: read-out: pLC50 (the source's name) (converted)
# [6] = Concentration required to inhibit total cell growth of human tumor cell lines (50 cells giving positive results out of 55 cells); Range = 5.23-4.07; type: functional; conditions: read-out: pTGI50 (converted)
# [7] = Concentration required to inhibit cell growth of human tumor cell lines (54 cells giving positive results out of 55 cells); Range = 5.75-4.50; type: functional
# [8] = Concentration required to inhibit total cell growth of human tumor cell lines (50 cells giving positive results out of 55 cells); Range = 5.45-4.00; type: functional; conditions: read-out: pTGI50 (converted)
# [9] = Concentration required to inhibit cell death of human tumor cell lines (48 cells giving positive results out of 55 cells); Range = 5.19-4.05; conditions: read-out: pLC50 (the source's name) (converted)
# [10] = Concentration required to inhibit cell death of human tumor cell lines (46 cells giving positive results out of 54 cells); Range = 5.36-4.01; type: functional; conditions: read-out: pLC50 (the source's name) (converted)
# [11] = Concentration required to inhibit cell growth of human tumor cell lines (54 cells giving positive results out of 54 cells); Range = 6.76-4.46; type: functional
# [12] = Concentration required to inhibit total cell growth of human tumor cell lines (51 cells giving positive results out of 54 cells); Range = 6.14-4.29; type: functional; conditions: read-out: pTGI50 (converted)
# [13] = Concentration required to inhibit cell death of human tumor cell lines (45 cells giving positive results out of 54 cells); Range = 5.25-4.05; type: functional; conditions: read-out: pLC50 (the source's name) (converted)
# [14] = Concentration required to inhibit cell growth of human tumor cell lines (53 cells giving positive results out of 54 cells); Range = 6.05-4.50; type: functional
# [15] = Concentration required to inhibit total cell growth of human tumor cell lines (52 cells giving positive results out of 54 cells); Range = 5.53-4.02; type: functional; conditions: read-out: pTGI50 (converted)
# [16] = Concentration required to inhibit cell death of human tumor cell lines (49 cells giving positive results out of 53 cells); Range = 5.25-4.11; type: functional; conditions: read-out: pLC50 (the source's name) (converted)
# [17] = Concentration required to inhibit cell growth of human tumor cell lines (53 cells giving positive results out of 53 cells); Range = 5.85-4.50; type: functional
# [18] = Concentration required to inhibit total cell growth of human tumor cell lines (52 cells giving positive results out of 53 cells; Range = 5.53-4.07; type: functional; conditions: read-out: pTGI50 (converted)
# [19] = Concentration required to inhibit cell death of human tumor cell lines (50 cells giving positive results out of 53 cells); Range = 5.21-4.01; type: functional; conditions: read-out: pLC50 (the source's name) (converted)
# [20] = Concentration required to inhibit cell growth of human tumor cell lines (51 cells giving positive results out of 53 cells); Range = 5.75-4.67; type: functional
# [21] = Concentration required to inhibit total cell growth of human tumor cell lines (52 cells giving positive results out of 53 cell lines); Range = 5.47-4.34; type: functional; conditions: read-out: pTGI50 (converted)
compound,measurement,setting,value
Cc1cc(=O)n2nnc3cc(Cl)ccc3n12,GI50,[1],0.525 µM
same,CC50,[2],5.37 µM
same,GI50,[3],1.91 µM
Cc1cc(=O)n2nnc3ccccc3n12,GI50,[4],2.09 µM
same,CC50,[5],55 µM
same,GI50,[6],5.89 µM
COc1ccc2c(c1)nnn1c(=O)cc(C)n21,GI50,[7],1.78 µM
same,GI50,[8],3.55 µM
same,CC50,[9],6.46 µM
Cc1ccc2nnn3c(=O)cc(C)n3c2c1,CC50,[10],4.37 µM
same,GI50,[11],0.174 µM
same,GI50,[12],0.724 µM
Cc1cc(=O)n2nnc3ccc(Cl)cc3n12,CC50,[13],5.62 µM
same,GI50,[14],0.891 µM
same,GI50,[15],2.95 µM
Cc1ccc2c(c1)nnn1c(=O)cc(C)n21,CC50,[16],5.62 µM
same,GI50,[17],1.41 µM
same,GI50,[18],2.95 µM
Cc1cc(=O)n2nnc3cc(F)ccc3n12,CC50,[19],6.17 µM
same,GI50,[20],1.78 µM
same,GI50,[21],3.39 µM
